In US20110256121A1, “METHODS AND KITS FOR DIAGNOSING OR MONITORING AUTOIMMUNE AND CHRONIC INFLAMMATORY DISEASES” (THE REGENTS OF THE UNIVERSITY OF MICHIGAN, priority 2008, published 2011):

How the values were obtained:
T cell genes = conditions: PHA-stimulated T cells, 2-deoxy-5-azaC
CD70 expression = CD70 expression on CD4+ cells of PBMCs cultured with lupus medications; type: cell-based, human; conditions: 1-100 μM, 24 hours, PBMCs with or without PHA
Protocol: (§1) Cells and cell culture. Peripheral blood mononuclear cells (PBMCs) were isolated by density-gradient centrifugation. T cells were then isolated by E-rosetting (See, e.g., Golbus et al., Clin Immunol Immunopathol 46, 129 (1988)). […] Where indicated, the cells were cultured in RPMI 1640/10% fetal calf serum (FCS) supplemented with interleukin-2 (IL-2) (See, e.g., Richardson et al., Clin Immunol Immunopathol 55, 368 (1990)), in round-bottomed 5-ml culture tubes (Falcon). Cells were stimulated with 1 μg/ml of PHA (Remel) for 16 hours, then cultured in 24-well plates at a density of 1×10^6 for an additional 72 hours in the presence of 2-deoxy-5-azaC or 5-azaC (Sigma-Aldrich), procainamide (Sigma-Aldrich), hydralazine (Sigma-Aldrich), or the MEK inhibitors U0126 (Promega) or PD98059 (Promega). In other studies, PHA-stimulated PBMCs were cultured in RPMI 1640/10% FCS and treated with indomethacin, chloroquine, hydrocortisone, and 6-mercaptopurine (6-MP) (all from Sigma-Aldrich). TT48E, a cloned, CD4+, tetanus toxoid-reactive human T cell line, was cultured as previously described (Cornacchia et al., J Immunol 140, 2197 (1988); Richardson et al., Arthritis Rheum 35, 647 (1992)).
(§2) Flow cytometric analysis. The following fluorochrome-conjugated monoclonal antibodies were obtained from BD PharMingen (San Diego, Calif.): FITC-conjugated anti-human CD70, CD2, or isotype-matched controls; phycoerythrin (PE)-conjugated anti-CD2, CD4, and CD8; and CyChromeconjugated anti-HLA-DR, CD2, and isotype controls. Staining and multicolor flow cytometric analysis were performed (See, e.g., Hale et al., Cell Immunol 220, 51 (2002)) using saturating concentrations of antibody.

CD70 mRNA = experiment: CD70 transcripts by real time RT-PCR in anti-CD3 + anti-CD28 stimulated CD4+ T cells; type: cell-based, human; conditions: 5 μm 5-azaC, 50 μm Pca, 20 μm Hyd, 40 μm U0126, 25 μm PD98059, 3 days
Protocol: (§3) In other studies, T cells were isolated by negative selection using magnetic beads and instructions provided by the manufacturer (Pan T cell Isolation Kit, Miltenyi), and the CD4+ or CD8+ subset was similarly isolated by magnetic cell sorting. Jurkat cells (E6-1) were cultured as previously described (See, e.g., Cornacchia et al., J Immunol 140:2197 (1998)). Purified human CD4+ T cells were first stimulated with plate bound anti-CD3 and soluble anti-CD28. Briefly, 24 well plates were coated with 300 μl of anti-CD3 (10 μg/ml in PBS—SouthernBiotech) 18 hours 4° C., washed, then 2×10^6 purified T cells were added to the wells in 2 ml RPMI 1640/10% FCS containing 2 μg/ml anti-CD28 (SouthernBiotech). The plates were incubated 37° C. in a humidified atmosphere containing 5% CO2 for 18-24 hours, then treated with 5 μm 5-azaC (Aldrich), 50 μm Pca (Sigma), 20 μm Hyd (Aldrich), 40 μm UO126 (Promega) or 25 μm PD98059 (Promega), and cultured for 3 additional days as described (See, e.g., Oelke et al., Arthritis Rheum 50:1850 (2004)).

T cell CD70 expression = experiment: CD70 expression on PHA-stimulated T cells by flow cytometry; type: cell-based, human; conditions: for CD70 expression on treated vs untreated PHA-stimulated T cells: unfractionated T cells, 3 days, 1 μM 5-azaC, dose-response for procainamide, PD98059, U0126
Protocol: as §1, §2
The panel of inhibitors used included 5-azaC, an irreversible DNA methyltransferase inhibitor (See, e.g., Glover and Leyland-Jones, Cancer Treat Rep 71, 959 (1987)) procainamide, a competitive DNA methyltransferase inhibitor (See e.g., Scheinbart et al., J Rheumatol 18, 530 (1991)), and the ERK pathway inhibitors PD98059, U0126, and hydralazine.
Studies were performed examining the effects of the DNA methylation inhibitors on CD70 expression in CD4+ and CD8+ T cell subsets.

CD70 promoter = experiment: Bisulfite sequencing of the CD70 promoter in CD4+ T cells; type: cell-based, human; conditions: for methylation of the 10 CG pairs between −515 and −423 of the CD70 promoter: anti-CD3 and anti-CD28 stimulated CD4+ T cells vs stimulated untreated controls
Protocol: as §3
Bisulfite sequencing. The putative CD70 promoter was identified using the published CD70 cDNA sequence and Tfsitescan software. Deoxycytosine (dC) and deoxymethylcytosine (d^mC) bases in the gene promoter and 5′ flanking sequences were identified by bisulfite treatment of purified DNA followed by nested PCR amplification of 3 sequential fragments to span the entire region. The primers were designed to avoid CG pairs and to account for the conversion of dC to dU by the bisulfite. EcoRI sites were added to the forward primers, and XbaI to the reverse, to facilitate cloning. The amplified fragments were then cloned into PBS+, and 5 clones sequenced for each fragment. The primers used were: […]
The effect of lupus and DNA methylation inhibitors on a regulatory element in the CD70 promoter was examined. DNA was isolated from the CD4+ T cells of 7 healthy individuals or 6 lupus patients, bisulfite treated, the region from −466-−515, containing 6 CG pairs was amplified by PCR, and 5 fragments sequenced from each individual. The average methylation status of the 6 CG pairs for healthy versus lupus individuals is shown (FIG. 8, NI and Lupus, respectively). CD4+ T cells from 5 individuals were also stimulated with PHA, treated with the irreversible DNA methyltransferase inhibitor 5-azacytidine (5-azaC), and the methylation status of the 6 CG pairs similarly analyzed from the 25 fragments sequenced (FIG. 8, 5-azaC). […] Results are presented as the mean±SEM of the average methylation of the 6 CG pairs, measured from the 10-35 determinations/group.
The effects of the DNA methylation inhibitors on the methylation status of this region were then compared. […] Again, 5 cloned fragments were sequenced from each control, for a total of 35 determinations per CG pair. […] FIG. 14 compares the average methylation for the 10 CG pairs (−515 to −423) in the T cells treated with DNA methylation inhibitors relative to stimulated, untreated controls.

[1] = biological target: KIR3DL1 on human T cells (human) (UniProt P43629); experiment: cell-based or functional assay
Chain of KIR3DL1 on human T cells (human) (P43629 22-444): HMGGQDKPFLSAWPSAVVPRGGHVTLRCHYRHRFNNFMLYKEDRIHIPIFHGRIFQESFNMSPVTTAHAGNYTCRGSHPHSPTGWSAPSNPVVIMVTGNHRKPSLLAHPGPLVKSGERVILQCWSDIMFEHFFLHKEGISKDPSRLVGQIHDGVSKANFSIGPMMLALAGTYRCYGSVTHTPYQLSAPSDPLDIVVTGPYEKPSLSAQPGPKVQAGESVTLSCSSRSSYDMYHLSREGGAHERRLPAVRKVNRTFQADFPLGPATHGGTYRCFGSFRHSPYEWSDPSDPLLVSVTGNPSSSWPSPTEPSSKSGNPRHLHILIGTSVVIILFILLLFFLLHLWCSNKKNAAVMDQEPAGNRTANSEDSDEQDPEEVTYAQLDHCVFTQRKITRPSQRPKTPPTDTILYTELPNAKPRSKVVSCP

Nc1ncn([C@H]2C[C@H](O)[C@@H](CO)O2)c(=O)n1 [2-deoxy-5-azaC]
CD70 expression increase in treated cells relative to untreated controls (T cell genes; 3 days, oligonucleotide arrays, mean±SEM, 2 independent experiments): 2.6±0.6 fold
genes decreased ≧2-fold (T cell genes; treated vs untreated): 12 genes
genes reproducibly increased ≧2-fold (T cell genes; treated vs untreated): 118 genes

Sc1ncnc2nc[nH]c12 [6-MP, 6-mercaptopurine]
CD70 expression on stimulated or unstimulated CD4+ cells (CD70 expression): No increase in CD70 expression was seen

COc1cccc(-c2cc(=O)c3ccccc3o2)c1N [PD98059]
CD70 transcripts relative to β-actin, treated vs untreated (CD70 mRNA): increase CD70 transcripts
increase of CD70 MFI on CD4+ T cells (T cell CD70 expression; 25 μM PD98059, n=3, P=0.032): 1.63±0.43 fold
CD70 expression on CD4+ T cells (T cell CD70 expression): increased CD70 expression on CD4+ T cells
CD70 expression on treated vs untreated PHA-stimulated T cells (T cell CD70 expression): increase in CD70 expression with treatment
methylation of the 10 CG pairs between −515 and −423 of the CD70 promoter (CD70 promoter): appears to demethylate

CCN(CC)CCCC(C)Nc1ccnc2cc(Cl)ccc12 (stereo not drawn) [chloroquine]
CD70 expression on stimulated or unstimulated CD4+ cells (CD70 expression): No increase in CD70 expression was seen

C[C@]12CCC(=O)C=C1CC[C@@H]1[C@@H]2[C@@H](O)C[C@@]2(C)[C@H]1CC[C@]2(O)C(=O)CO [hydrocortisone]
CD70 expression on stimulated or unstimulated CD4+ cells (CD70 expression): No increase in CD70 expression was seen

COc1ccc2c(c1)c(CC(=O)O)c(C)n2C(=O)c1ccc(Cl)cc1 [indomethacin]
CD70 expression on stimulated or unstimulated CD4+ cells (CD70 expression): No increase in CD70 expression was seen

CCN(CC)CCNC(=O)c1ccc(N)cc1 [procainamide]
CD70 transcripts relative to β-actin, treated vs untreated (CD70 mRNA): increase CD70 transcripts
CD70 expression on CD4+ T cells (T cell CD70 expression): increased CD70 expression on CD4+ T cells
CD70 expression on treated vs untreated PHA-stimulated T cells (T cell CD70 expression): increase in the ratio of the mean fluorescence intensity (MFI) of CD70 expression
methylation of the CD70 promoter region −466-−515 (6 CG pairs) (CD70 promoter; PHA-stimulated CD4+ T cells): demethylate this region
methylation of the 10 CG pairs between −515 and −423 of the CD70 promoter (CD70 promoter): appears to demethylate

anti-NKB1 (KIR3DL1) antibody (BD PharMingen)
% cytotoxicity (51Cr release from autologous monocytes/macrophages) (% cytotoxicity) [1]: 37
